The values below come from ChEMBL document CHEMBL4017442, “Recent updates of carbapenem antibiotics” (Eur J Med Chem, 2017).

A short description of data set [1]: Elimination half life in human at 1 g, iv administered as single dose. The format is ADME, organism-based. The note with it: in vivo, read-out: beta t1/2 (converted).
For data set [2], the system named is Plasma. The experiment in a line: Protein binding in human plasma at < 50 ug/ml. It is filed as ADME, cell-free.
Data set [3] can be described thus: Half life in iv dosed human. The format is ADME, organism-based. As to conditions: in vivo.
Data set [4] deals with Mus musculus. The experiment in a line: Anti-inflammatory activity in mouse model of CLP-induced sepsis assessed as survival time at 25 ug/g, sc in presence of atorvastatin (reference value: 20 +/- 1.66 hrs). The format is functional.
In data set [5] the test system is Staphylococcus aureus. As to the kind of experiment: Potentiation of imipenem-induced antibacterial activity against methicillin-reisitant Staphylococcus aureus assessed as fold reduction in imipenem MIC at 10 ug/ml measured after 20 hrs by liquid microdilution method relative to imipenem alone. It is filed as functional. For orientation: Dilution methods test growth across graded concentrations, often in twofold steps.

The test system of data set [6] is Blood. The experiment in a line: Drug uptake in end-stage renal disease patient blood at 0.5 g, iv. The format is ADME, tissue-based. As to conditions: human.
Data set [7] has as its system Blood. The experiment in a line: Drug uptake in end-stage renal disease patient blood at 0.75 g, iv. As to conditions: human. It is filed as ADME, tissue-based.
The subject of data set [8] is Staphylococcus aureus. The experiment in a line: Potentiation of imipenem-induced antibacterial activity against methicillin-reisitant Staphylococcus aureus assessed as imipenem MIC (reference value: 16 ug/ml). The format is functional.
A short description of data set [9]: Clearance in end-stage renal disease patient undergoing drug hydrolysis. The note with it: human. It is filed as ADME.
Data set [10] in a line: Clearance in end-stage renal disease patient without drug hydrolysis. The note with it: human. The format is ADME.
The nature of data set [11]: Ratio of drug level in serum to cerebrospinal fluid in human. The format is ADME.

As for `C[C@@H](O)[C@H]1C(=O)N2C(C(=O)O)=C(S[C@@H]3CN[C@H](C(=O)Nc4cccc(C(=O)O)c4)C3)[C@H](C)[C@H]12` [ERTAPENEM], the half-life in data set [1] is 4 h. Besides, the PPB in data set [2] stood at 94%.

The molecule `C[C@@H](O)[C@H]1C(=O)N2C(C(=O)O)=C(SCCNC=N)C[C@H]12` [IMIPENEM ANHYDROUS] gave a half-life in [3] of 1 h. Moreover, in [4], the Survival was found to be 56 h.

With `C=C/C(C)=C/C[C@@H]1[C@@]2(C)CCC[C@](C)(CO)[C@@H]2C[C@H](O)[C@]1(O)CSC[C@H](NC(C)=O)C(=O)O`, in data set [5], the “fold change (FC)” value is listed as 123.

For `O=C(O)CCNC(=O)c1ccccc1` [BETAMIPRON], the Drug uptake in [6] worked out at 24 mg/L; in [7], 39 mg/L.

One may read the MIC as the lowest concentration found to suppress growth. For `C=C/C(C)=C/C[C@@H]1[C@@]2(C)CCCC(C)(C)[C@@H]2C[C@H](O)[C@]1(O)CSC[C@H](NC(C)=O)C(=O)O`, in data set [8], the MIC worked out at 0.05 µg/mL.

`CC(=N)N1CC[C@H](SC2=C(C(=O)O)N3C(=O)[C@H]([C@@H](C)O)[C@H]3C2)C1` [PANIPENEM] showed a half-life in data set [3] of 1.2 h. The clearance was 159 mL/min in data set [9] and 48.7 mL/min in data set [10]. Also, the Drug uptake was found to be 37 mg/L in data set [6] and 61 mg/L in data set [7]. Also, the Ratio in [11] is 8.

Consider `C=C/C(C)=C/C[C@@H]1[C@@]2(C)CCCC(C)(C)[C@@H]2C[C@H](O)[C@]1(O)CSC[C@H](NC(C)=O)C(=O)OC`, for which the “fold change (FC)” value in data set [5] came out at 533.
